Our source for the IC50 values is BindingDB's records for doi:10.1016/S0960-894X(03)00095-7 (Abbott Laboratories, 2003).

For experiment [1], the target named is Geranylgeranyl transferase type-1 subunit beta/Protein farnesyltransferase/geranylgeranyltransferase type-1 subunit alpha (Bos taurus, UniProt P29702+Q5EAD5). As to the kind of experiment: GGTase-I Activity Assay. The note with it: pH 7.5; 37 °C. How it is done:
The in vitro activity of compounds inhibiting GGTase-1 was determined by measuring the transfer of [3H]-geranylgeranylpyrophosphate to substrate Ha-Ras-CVLL. The incorporated radioactivity was quantified by scintillation counting.

Experiment [2] concerns the target Protein farnesyltransferase subunit beta/geranylgeranyltransferase type-1 subunit alpha (Bos taurus, UniProt P29702+P49355). Briefly: FTase Activity Assay. The note with it: pH 7.5; 37 °C. How it is done: The in vitro activity of compounds inhibiting FTase was determined by measuring the transfer of [3H]-FPP to substrate Ha-Ras-CVLS. The incorporated radioactivity was quantified by scintillation counting.

A word on the IC50: it is the concentration that inhibits the measured activity by half. Higher therefore signals weaker potency in that assay. In the case of `CN(Cc1ccc(C#N)cc1)[C@H](Cc1cncn1C)C(=O)N1CCC(C#N)=C(c2cccc3ccccc23)C1` [1-[(2R)-2-{[(4-cyanophenyl)methyl](methyl)amino}-3-(1-methyl-1H-imidazol-5-yl)propanoyl]-5-(naphthalen-1-yl)-1,2,3,6-tetrahydropyridine-4-carbonitrile], the IC50 in experiment [1] is 1600 nM; in experiment [2] it was 0.92 nM.
